In patent publication US7488811B2, “Macrolide compounds endowed with antiinflammatory activity” (Zambon Group S.p.A., priority 2002, dated 2009):
Converted amounts (≈) assume the structure as drawn.

Experiments:
[1] = system: Enterococcus faecalis ATCC 29212; assay: Antibiotic activity, MIC or activity at 128 μg/ml; type: cell-based; conditions: Enter. faecalis ATCC 29212; for MIC: Enterococcus faecalis, ATCC29212
Description: (§1) The MIC values were determined in liquid earth according to the method described in “Manual of Clinical Microbiology, 7th edition (1999), American Society for Microbiology”.

[2] = system: Streptococcus pneumoniae ATCC 49619; assay: Antibiotic activity, MIC in liquid medium; type: cell-based; conditions: ATCC49619, Strep. pneum ATTC 49619
Description: as §1

[3] = system: Staphylococcus aureus ATCC 29213; assay: Antibiotic activity, MIC in liquid medium; type: cell-based; conditions: ATCC29213, Staph. aureus ATCC 29213
Description: as §1

[4] = system: Staphylococcus aureus ATCC 6538; assay: Antibiotic activity at 128 μg/ml; type: cell-based; conditions: Staph. aureus ATCC 6538
Description: as §1

[5] = system: Streptococcus pyogenes ATCC 19615; assay: Antibiotic activity at 128 μg/ml; type: cell-based; conditions: Strep. pyogenes ATTC 19615
Description: as §1

[6] = system: LPS-induced accumulation of neutrophils in rat lungs; assay: LPS-induced pulmonary inflammation in rats (neutrophil count in bronchial fluid wash); type: in vivo; conditions: single oral dose 100, 40, 10 μmol/kg one hour before LPS 0.4 mg/kg endotracheal, 20 h, erythromycin: single oral dose 130 μmol/kg
Description: B) LPS-Induced Pulmonary Inflammation in Rats • Administration
The rats received endotracheally, via the peroral route, a single dose of 0.4 mg/kg of LPS (E. coli, serotype 026:6). The tracheal instillation was performed under anaesthesia with halothane and, 20 hours after the endotracheal administration of LPS/saline solution, the animals were sacrificed by means of an overdose of urethane. • Washing
The lungs were washed with 4 aliquots of 5 ml each of saline solution with 10 IU ml^−1 heparin. The cell suspension was concentrated by low-speed centrifugation and the cell pellet was suspended. • Counting of the Cells and Differentiation.
The total cell count was performed in a haemocytometer.
The differential counting was performed on cytospin preparations stained with May-Grunwald-Giemsa (Tamaoki J., Tagaya E., Yamawaki I., Sakai, Nagai A., Konno K, 1995. Effect of erythromycin on endotoxin-induced microvascular leakage in the rat trachea and lungs. Am. J. Respir. Crit. Care Med., 151, 1582-8). The rats received the test compounds orally in doses of 100, 40 and 10 μmol/kg as a single administration dose orally one hour before exposure to LPS.
ED50 value is the dose that induced a 50% reduction in the neutrophil count in the bronchial fluid wash.
The data relating to erythromycin refers to an oral treatment with a single dose of 130 μmol/kg.

[7] = system: PMA-induced oedema in mouse ear; assay: Acute contact dermatitis: TPA (PMA)-induced ear oedema in mice; type: in vivo; conditions: CD1 mice, 500 μg/ear topical in TPDS 30 min before TPA 0.01%, 6 h
Description: Groups of 5-6 CD1 mice (18-24 g) were used. • Administration of the compounds
All the macrolide compounds were dissolved in Trans-phase Delivery System (TPDS), a vehicle formed by 10% benzyl alcohol, 40% acetone and 50% isopropanol.
15 microlitres of the compounds (500 μg), dissolved in TPDS, were applied topically to the inner surface of an ear; 30 minutes later, 12 microlitres of a solution of tetradecanoylphorbol acetate (TPA) at a concentration of 0.01% dissolved in acetone were applied to the same area.
Six hours later, the animals were sacrificed by inhalation of CO2. • Evaluation of the results
Two methods were used to evaluate the auricular oedema: • a) Weight of a given portion of auricular pinna. • b) Measurement of the auricular thickness using precision spring callipers.
The degree of oedema was calculated by subtracting the weight or the thickness of the untreated ear from that of the contralateral treated ear. To determine the degree of remission of the oedema, the difference (weight or thickness) of the groups treated with TPA+macrolides was then compared with the groups treated with TPA alone.
The activity of the macrolide compounds was measured by using the modified method of Zunic et al. (1998): MDL (Lysyl) GDP, a non-toxic muramyl dipeptide derivative inhibits cytokine production by activated macrophages and protects mice from phorbol ester- and oxazolone-induced inflammation (J. Invest. Dermatol., 111(1), 77-82).
The data relating to erythromycin and azythromycin concern the treatment with a single dose of 500 μg/ear.

[8] = Water solubility noted at work-up; type: physicochemical; conditions: remark in the work-up
Description: Compound 19 was prepared from intermediate 28 (600 mg, 0.64 mmol) according to the procedures described for compound 1. Given that the product is water-soluble, the crude solid was dissolved in water (50′ ml) and washed with CH2Cl2 (3×20 ml). The solvent was evaporated from the aqueous phase under vacuum and dried to give compound 19 (480 mg, 95% yield) as a crystalline solid. • [M+1]^+ 775

[9] = method a: weight of a given portion of auricular pinna

MIC [1]	MIC [2]	MIC [3]	Solubility in water [8]	MIC ([4]; Staphylococcus aureus, ATCC6538)	MIC ([5]; Streptococcus pyogenes, ATCC19615)	Structure (SMILES)	Antibiotic activity at 128 μg/ml ([1]; 128 μg/ml)	Antibiotic activity at 128 μg/ml ([4]; 128 μg/ml)	Antibiotic activity at 128 μg/ml ([5]; 128 μg/ml)	ED50 ([6]; Rattus norvegicus, Neutrophil, read-out: ED50 (dose inducing 50% reduction in neutrophil count in bronchial fluid wash))	inhibition in vivo at 500 µg/ear [7, 9]	inhibition in vivo at 500 µg/ear ([7]; method b: auricular thickness by precision spring callipers)	ED50 (dose inducing 50% reduction in neutrophil count in bronchial fluid wash) [6]
> 128 µg/mL	> 128 µg/mL	> 128 µg/mL				CC[C@H]1OC(=O)[C@H](C)[C@@H](O)[C@H](C)[C@@H](O[C@@H]2O[C@H](C)C[C@H](N(C)C(C)=O)[C@H]2O)C(C)(O)C[C@@H](C)[C@H](O)[C@H](C)[C@@H](O)[C@]1(C)O (some centres unmarked) [Compound 1]	not active	not active	not active	7 µmol/kg	65.6%		
> 128 µg/mL	16 µg/mL (≈ 20.7 µM)	> 128 µg/mL	water-soluble			CC[C@H]1OC(=O)[C@H](C)[C@@H](O)[C@H](C)[C@H](O[C@@H]2O[C@H](C)CC(N(C)C)[C@@H]2O)[C@](C)(O)C[C@@H](C)/C(=N\OCCNCCNCc2nccs2)[C@H](C)[C@H](O)[C@]1(C)O (some centres unmarked) [Compound 19]						28.2%	
1 µg/mL (≈ 1.36 µM)	0.12 µg/mL (≈ 0.164 µM)	0.25 µg/mL (≈ 0.341 µM)		0.25 µg/mL (≈ 0.341 µM)	0.12 µg/mL (≈ 0.164 µM)	CC[C@H]1OC(=O)[C@H](C)[C@@H](O[C@H]2C[C@@](C)(OC)[C@@H](O)[C@H](C)O2)[C@H](C)[C@@H](O[C@@H]2O[C@H](C)C[C@H](N(C)C)[C@H]2O)[C@](C)(O)C[C@@H](C)C(=O)[C@H](C)[C@@H](O)[C@]1(C)O [Erythromycin, reference compound]					42%		Not active
